Results taken from the NIST ThermoML archive (doi:10.1016/j.tca.2014.05.028).
± gives the expanded uncertainty stated by the source.

Test: xn = mol fraction of the nth substance listed
Details: 101 kPa, Liquid; for viscosity: Falling or rolling sphere viscometry; for mass density: Vibrating tube method

CCCCC[N+]1(C)CCCC1.[Br-] [1-methyl-1-pentylpyrrolidinium bromide] + O
Details | mass density [kg/m3] | viscosity [mPa·s]
298.15 K, x1 = 0.0313 | 1054.87 ± 0.38 | 1.987 ± 0.12
298.15 K, x1 = 0.0592 | 1089.64 ± 0.29 | 3.402 ± 0.21
298.15 K, x1 = 0.0944 | 1119.19 ± 0.26 | 6.013 ± 0.36
298.15 K, x1 = 0.1301 | 1139.59 ± 0.25 | 10.08 ± 0.61
298.15 K, x1 = 0.1566 | 1150.73 ± 0.24 | 14.2 ± 0.86
298.15 K, x1 = 0.1964 | 1163.63 ± 0.24 | 22.59 ± 1.4
298.15 K, x1 = 0.2468 | 1175.13 ± 0.24 | 38.27 ± 2.3
298.15 K, x1 = 0.3028 | 1184.58 ± 0.25 | 66.43 ± 4
298.15 K, x1 = 0.3503 | 1190.28 ± 0.25 | 102.55 ± 6.6
298.15 K, x1 = 0.4097 | 1195.59 ± 0.26 | 175.43 ± 13
298.15 K, x1 = 0.445 | 1198.37 ± 0.27 | 241.18 ± 19
298.15 K, x1 = 1 | 1188.96 ± 0.4 | –
303.15 K, x1 = 0.0313 | 1052.43 ± 0.37 | 1.728 ± 0.11
303.15 K, x1 = 0.0592 | 1086.59 ± 0.29 | 2.903 ± 0.18
303.15 K, x1 = 0.0944 | 1115.78 ± 0.26 | 5.036 ± 0.3
303.15 K, x1 = 0.1301 | 1136.1 ± 0.25 | 8.404 ± 0.51
303.15 K, x1 = 0.1566 | 1147.25 ± 0.24 | 11.61 ± 0.7
303.15 K, x1 = 0.1964 | 1160.15 ± 0.24 | 18.05 ± 1.1
303.15 K, x1 = 0.2468 | 1171.69 ± 0.24 | 29.76 ± 1.8
303.15 K, x1 = 0.3028 | 1181.21 ± 0.25 | 50.36 ± 3
303.15 K, x1 = 0.3503 | 1186.96 ± 0.25 | 76.83 ± 4.7
303.15 K, x1 = 0.4097 | 1192.35 ± 0.26 | 128.64 ± 8.6
303.15 K, x1 = 0.445 | 1195.15 ± 0.27 | 173.72 ± 12
303.15 K, x1 = 1 | 1185.14 ± 0.4 | –
308.15 K, x1 = 0.0313 | 1049.86 ± 0.37 | 1.469 ± 0.089
308.15 K, x1 = 0.0592 | 1083.44 ± 0.29 | 2.433 ± 0.15
308.15 K, x1 = 0.0944 | 1112.34 ± 0.26 | 4.142 ± 0.25
308.15 K, x1 = 0.1301 | 1132.57 ± 0.24 | 6.871 ± 0.42
308.15 K, x1 = 0.1566 | 1143.72 ± 0.24 | 9.343 ± 0.56
308.15 K, x1 = 0.1964 | 1156.64 ± 0.24 | 14.22 ± 0.86
308.15 K, x1 = 0.2468 | 1168.24 ± 0.24 | 22.83 ± 1.4
308.15 K, x1 = 0.3028 | 1177.83 ± 0.25 | 37.83 ± 2.3
308.15 K, x1 = 0.3503 | 1183.64 ± 0.25 | 56.94 ± 3.4
308.15 K, x1 = 0.4097 | 1189.09 ± 0.26 | 93.53 ± 5.9
308.15 K, x1 = 0.445 | 1191.92 ± 0.27 | 124.68 ± 8.3
308.15 K, x1 = 1 | 1181.35 ± 0.4 | –
313.15 K, x1 = 0.0313 | 1047.17 ± 0.36 | 1.288 ± 0.078
313.15 K, x1 = 0.0592 | 1080.23 ± 0.29 | 2.104 ± 0.13
313.15 K, x1 = 0.0944 | 1108.85 ± 0.26 | 3.523 ± 0.21
313.15 K, x1 = 0.1301 | 1129.01 ± 0.24 | 5.794 ± 0.35
313.15 K, x1 = 0.1566 | 1140.17 ± 0.24 | 7.793 ± 0.47
313.15 K, x1 = 0.1964 | 1153.12 ± 0.24 | 11.62 ± 0.7
313.15 K, x1 = 0.2468 | 1164.79 ± 0.24 | 18.25 ± 1.1
313.15 K, x1 = 0.3028 | 1174.44 ± 0.25 | 29.54 ± 1.8
313.15 K, x1 = 0.3503 | 1180.31 ± 0.25 | 43.93 ± 2.7
313.15 K, x1 = 0.4097 | 1185.82 ± 0.26 | 70.78 ± 4.3
313.15 K, x1 = 0.445 | 1188.67 ± 0.27 | 94.43 ± 6
313.15 K, x1 = 1 | 1177.58 ± 0.4 | –
318.15 K, x1 = 0.0313 | 1044.36 ± 0.36 | 1.152 ± 0.07
318.15 K, x1 = 0.0592 | 1076.94 ± 0.29 | 1.849 ± 0.11
318.15 K, x1 = 0.0944 | 1105.32 ± 0.26 | 3.055 ± 0.18
318.15 K, x1 = 0.1301 | 1125.43 ± 0.24 | 4.98 ± 0.3
318.15 K, x1 = 0.1566 | 1136.58 ± 0.24 | 6.632 ± 0.4
318.15 K, x1 = 0.1964 | 1149.57 ± 0.24 | 9.734 ± 0.59
318.15 K, x1 = 0.2468 | 1161.33 ± 0.24 | 14.99 ± 0.91
318.15 K, x1 = 0.3028 | 1171.04 ± 0.24 | 23.75 ± 1.4
318.15 K, x1 = 0.3503 | 1176.97 ± 0.25 | 35.02 ± 2.1
318.15 K, x1 = 0.4097 | 1182.56 ± 0.26 | 55.19 ± 3.3
318.15 K, x1 = 0.445 | 1185.43 ± 0.26 | 73.04 ± 4.5
318.15 K, x1 = 1 | 1173.84 ± 0.39 | –
323.15 K, x1 = 0.0313 | 1041.42 ± 0.36 | 1.018 ± 0.062
323.15 K, x1 = 0.0592 | 1073.59 ± 0.28 | 1.61 ± 0.097
323.15 K, x1 = 0.0944 | 1101.75 ± 0.26 | 2.62 ± 0.16
323.15 K, x1 = 0.1301 | 1121.81 ± 0.24 | 4.239 ± 0.26
323.15 K, x1 = 0.1566 | 1132.97 ± 0.24 | 5.594 ± 0.34
323.15 K, x1 = 0.1964 | 1146.01 ± 0.24 | 8.098 ± 0.49
323.15 K, x1 = 0.2468 | 1157.86 ± 0.24 | 12.24 ± 0.74
323.15 K, x1 = 0.3028 | 1167.63 ± 0.24 | 19.02 ± 1.1
323.15 K, x1 = 0.3503 | 1173.62 ± 0.25 | 27.61 ± 1.7
323.15 K, x1 = 0.4097 | 1179.3 ± 0.26 | 43.02 ± 2.6
323.15 K, x1 = 0.445 | 1182.19 ± 0.26 | 56.06 ± 3.4
323.15 K, x1 = 1 | 1170.12 ± 0.39 | –
328.15 K, x1 = 0.0313 | 1038.21 ± 0.35 | 0.901 ± 0.055
328.15 K, x1 = 0.0592 | 1070.18 ± 0.28 | 1.406 ± 0.085
328.15 K, x1 = 0.0944 | 1098.14 ± 0.25 | 2.253 ± 0.14
328.15 K, x1 = 0.1301 | 1118.16 ± 0.24 | 3.594 ± 0.22
328.15 K, x1 = 0.1566 | 1129.34 ± 0.23 | 4.737 ± 0.29
328.15 K, x1 = 0.1964 | 1142.42 ± 0.23 | 6.779 ± 0.41
328.15 K, x1 = 0.2468 | 1154.37 ± 0.24 | 10.1 ± 0.61
328.15 K, x1 = 0.3028 | 1164.2 ± 0.24 | 15.38 ± 0.93
328.15 K, x1 = 0.3503 | 1170.27 ± 0.25 | 22.07 ± 1.3
328.15 K, x1 = 0.4097 | 1176.04 ± 0.26 | 33.82 ± 2.1
328.15 K, x1 = 0.445 | 1178.95 ± 0.26 | 43.84 ± 2.6
328.15 K, x1 = 1 | 1166.42 ± 0.39 | –
333.15 K, x1 = 0.0313 | 1034.52 ± 0.35 | 0.806 ± 0.049
333.15 K, x1 = 0.0592 | 1066.7 ± 0.28 | 1.238 ± 0.075
333.15 K, x1 = 0.0944 | 1094.49 ± 0.25 | 1.961 ± 0.12
333.15 K, x1 = 0.1301 | 1114.49 ± 0.24 | 3.084 ± 0.19
333.15 K, x1 = 0.1566 | 1125.68 ± 0.23 | 4.048 ± 0.24
333.15 K, x1 = 0.1964 | 1138.81 ± 0.23 | 5.734 ± 0.35
333.15 K, x1 = 0.2468 | 1150.85 ± 0.24 | 8.449 ± 0.51
333.15 K, x1 = 0.3028 | 1160.77 ± 0.24 | 12.68 ± 0.77
333.15 K, x1 = 0.3503 | 1166.91 ± 0.25 | 18.16 ± 1.1
333.15 K, x1 = 0.4097 | 1172.78 ± 0.26 | 27.16 ± 1.6
333.15 K, x1 = 0.445 | 1175.7 ± 0.26 | 35.05 ± 2.1
333.15 K, x1 = 1 | 1162.75 ± 0.39 | –
338.15 K, x1 = 0.0313 | 1031.9 ± 0.35 | 0.735 ± 0.044
338.15 K, x1 = 0.0592 | 1063.16 ± 0.28 | 1.117 ± 0.068
338.15 K, x1 = 0.0944 | 1090.8 ± 0.25 | 1.75 ± 0.11
338.15 K, x1 = 0.1301 | 1110.78 ± 0.24 | 2.707 ± 0.16
338.15 K, x1 = 0.1566 | 1121.99 ± 0.23 | 3.551 ± 0.21
338.15 K, x1 = 0.1964 | 1135.18 ± 0.23 | 4.983 ± 0.3
338.15 K, x1 = 0.2468 | 1147.32 ± 0.24 | 7.259 ± 0.44
338.15 K, x1 = 0.3028 | 1157.32 ± 0.24 | 10.76 ± 0.65
338.15 K, x1 = 0.3503 | 1163.54 ± 0.25 | 15.24 ± 0.92
338.15 K, x1 = 0.4097 | 1169.46 ± 0.26 | 22.53 ± 1.4
338.15 K, x1 = 0.445 | 1172.45 ± 0.26 | 28.48 ± 1.7
338.15 K, x1 = 1 | 1159.1 ± 0.38 | –
343.15 K, x1 = 0.0313 | 1026.38 ± 0.35 | 0.661 ± 0.04
343.15 K, x1 = 0.0592 | 1059.56 ± 0.29 | 0.991 ± 0.06
343.15 K, x1 = 0.0944 | 1087.07 ± 0.25 | 1.532 ± 0.093
343.15 K, x1 = 0.1301 | 1107.04 ± 0.24 | 2.328 ± 0.14
343.15 K, x1 = 0.1566 | 1118.28 ± 0.23 | 3.039 ± 0.18
343.15 K, x1 = 0.1964 | 1131.53 ± 0.23 | 4.253 ± 0.26
343.15 K, x1 = 0.2468 | 1143.76 ± 0.24 | 6.138 ± 0.37
343.15 K, x1 = 0.3028 | 1153.87 ± 0.24 | 9.006 ± 0.55
343.15 K, x1 = 0.3503 | 1160.16 ± 0.25 | 12.52 ± 0.76
343.15 K, x1 = 0.4097 | 1166.21 ± 0.25 | 18.43 ± 1.1
343.15 K, x1 = 0.445 | 1169.19 ± 0.26 | 22.9 ± 1.4
343.15 K, x1 = 1 | 1155.48 ± 0.38 | –
